# Results taken from patent publication US20080242594A1, “Methods for Promoting Stem Cell Proliferation and Survival” (priority 2005, published 2008).
# Key:
# HSF6 hES cells = assay: hES self-renewal over 3 passages; format: cell-based, human; details: 3 passages (3 weeks), daily treatments
# Description: To assess whether JAK inhibition was consistent with self-renewal of hES cells, HSF6 cells were continuously exposed to the JAK inhibitor by daily additions for three passages as single cells (three weeks) and analyzed for expression of antigens that distinguish the undifferentiated and differentiated states. The cells exposed to the drug, like the FGF2 controls, had normal morphology, were positive for Oct3/4, SSEA4, Tra-1-60, and Tra-1-81, and negative for SSEA1 (FIG. 5f, FIG. 11). To assess their ability to differentiate into neural precursors, embryoid bodies (EBs) were generated and many Sox1+/Nestin+ cells obtained (FIG. 11). Finally, to assess that the cells retained their ability to generate TH+ neurons, direct differentiation protocols were performed; a high proportion of TH+/TUJ1+ cells were obtained (FIG. 5g).
# adult rats = assay: Intraventricular infusion in normal adult rats, BrdU labeled cells; format: in vivo, rat; details: for concentration in the pump at which maximal effects were achieved: constant FGF2 2.5 μg/ml
# Protocol: In-vivo Experiments: All drugs were infused over one week using an Alzet osmotic pump (model 2001 delivering at a rate of 1 μl/hr for seven days). Briefly, an intracerebral cannula connected to the pump was inserted into the right lateral ventricle using the following stereotaxic coordinates: bregma AP +0, Lateral −1.5 mm dorso-ventral 3.3 mm. Animals received IP injection of the tracer BrdU (50 mg/kg) every 12 hours for 5 days beginning on day one post-operatively to label dividing cells.
# Immuno-positive cells were analyzed by confocal microscopy counted using a non-biased system on slides obtained from homologous coronal slices containing the infarct of each animal at the position between +0.2 and −3.8 mm from the center of the bregma according to stereotaxic coordinates. Cells were enumerated in […] regions of interest, on both the ipsilateral and contralateral hemispheres (to cannula, or cannula and ischemic focus): subventricular zone (SVZ), corpus callosum and white matter and the peri-infarct cortex.
# The effect of intraventricular administration of Delta-4 was studied in adult rats. As in other tissues, the numbers of stem cells in the adult CNS are precisely controlled. […] In vivo manipulations were designed to ask if Notch ligands can act alone or substantially alter the effect of FGF2 on the numbers of proliferating cells in the SVZ of the normal brain. Animals (N=5-6 per treatment) were fitted with a mini-osmotic pump administering artificial cerebrospinal fluid (ACSF, vehicle), FGF2, Delta-4, or a combination FGF2+Delta-4 for one week into the ventricles of three-month old rats. Animals were also given twice-daily injections of bromodeoxyuridine (BrdU) from post-op days two to six to label cells generated during this time window. Two groups of animals were analyzed at day 7 and day 45 relative to the initiation of protein delivery. Delta-4 doses were chosen to provide a roughly equal concentration in the rat adult cerebrospinal fluid as in the cell culture medium of our in vitro experiments.
# IGF1/insulin receptor = IGF1/insulin receptor phosphorylation in foetal NSC cultures; format: cell-based, mouse
# Protocol: Specifically, D114 induced the phosphorylation of IGF1/insulin receptor. Peak phosphorylation occurred at 2-5 minutes.
# It was determined that insulin facilitates Notch cleavage using immunocytochemical detection.
# [1] = test system: rat adult subventricular zone central nervous system stem cell cultures; assay: Survival of adult SVZ CNS stem cell cultures with insulin and Dll4; format: cell-based
# Protocol: As there was a tight correlation between the Notch survival pathway and Hes3, it was investigated as to whether Hes3 is a mediator of the Notch pro-survival signalling. It was determined that both insulin and Notch activation promote the survival of foetal and adult neural stem cell cultures and their effects are additive (Tables 8-9).
# nucleostemin, SHH = assay: Nucleostemin and SHH protein expression in CNS stem cells; format: cell-based, mouse
# Description: The interest in stem cell self-renewal mechanisms prompted analysis of potential down-stream components of the Notch/STAT3-Ser727 (Notch/sSTAT) pathway. Nucleostemin is a p53-binding protein expressed in self-renewing CNS stem cells and cancer cells (Tsai et al., J Neurosci 20:3725-35, 2000; Tsai et al., J Cell Biol 168:179-84, 2005). Sonic Hedgehog (SHH) is a protein with functions in fate specification and stem cell survival in the fetal and adult CNS (Palma et al., Development 132:335-44, 2005).
# There are two forms of mRNA encoded by the Hes3 gene, Hes3a and Hes3b.
# [2] = Insulin withdrawal, 2 days and then treat for 1 h
Molecule,morphology and antigenic profile (HSF6 hES cells),"number of BrdU+ cells in SVZ, corpus callosum and cerebral cortex (adult rats; 45 days, relative to FGF2 treated animals)",concentration in the pump at which maximal effects were achieved (adult rats; contralateral site) [µg/mL],"number of proliferating cells / BrdU incorporation (adult rats; day 7, contralateral site)","number of BrdU labeled cells in SVZ, corpus callosum and cortex (adult rats; day 7, hemisphere ipsilateral to the cannula)",concentration in the pump at which maximal effects were achieved (adult rats; ipsilateral site),pIGF1 (19H7) (IGF1/insulin receptor; [2]),pIGF1 (3021) (IGF1/insulin receptor; [2]),time of peak phosphorylation of IGF1/insulin receptor (IGF1/insulin receptor; foetal NSC cultures) [min],Cell # [1],"nucleostemin and SHH protein expression (nucleostemin, SHH)"
"CC(C)(C)c1nc2c3ccc(F)cc3c3c(=O)[nH]ccc3c2[nH]1 [JAK Inhibitor, 2-(1,1-Dimethylethyl)-9-fluoro-3,6-dihydro-7H-benz[h]-imidaz[4,5-f]isoquinolin-7-one]",retained normal morphology and antigenic profile of undifferentiated hES cells,–,–,–,–,–,–,–,–,–,–
Delta-4: soluble Notch ligand Delta-4 (1389-D4) from R&D,–,increased number of BrdU+ cells,~4.2,induced significant increases in BrdU incorporation,increased the number of BrdU labeled cells,approximately 0.42 μg/ml,Low,Low,2 to 5,High,induced nucleostemin and SHH protein expression
